This is an account of results in ChEMBL document CHEMBL4340549, “Design, synthesis and biological evaluation of isochroman-4-one hybrids bearing piperazine moiety as antihypertensive agent candidates” (Bioorg Med Chem, 2019).

Series [1] deals with Rattus norvegicus. Briefly: Effect on heart rate in spontaneously hypertensive rat assessed as heart rate level at 80 mg/kg, po measured after 6 hrs by tail-cuff method (reference value: 411.12 +/- 19.1 bpm). It is filed as ADME, organism-based. Conditions: in vivo.
Series [2] concerns Rattus norvegicus. The series can be described thus: Antihypertensive activity in spontaneously hypertensive rat assessed as mean arterial pressure at 80 mg/kg, po measured after 6 hrs by tail-cuff method (reference value: 151.48 +/- 12.24 mmHg). It counts as functional.
For series [3], the system named is Thoracic aorta. Briefly: Vasodilatory activity in Sprague-Dawley rat thoracic aorta assessed as inhibition of noradrenaline-induced contractions at 10 uM relative to untreated control. It counts as functional.
The test system of series [4] is Thoracic aorta. Briefly: Vasodilatory activity in Sprague-Dawley rat thoracic aorta assessed as inhibition of noradrenaline-induced contractions at 100 uM relative to untreated control. It counts as functional.
The target in series [5] is T1, Alpha-1D adrenergic receptor (Rattus norvegicus, UniProt P23944).
T1 sequence (P23944 whole entry): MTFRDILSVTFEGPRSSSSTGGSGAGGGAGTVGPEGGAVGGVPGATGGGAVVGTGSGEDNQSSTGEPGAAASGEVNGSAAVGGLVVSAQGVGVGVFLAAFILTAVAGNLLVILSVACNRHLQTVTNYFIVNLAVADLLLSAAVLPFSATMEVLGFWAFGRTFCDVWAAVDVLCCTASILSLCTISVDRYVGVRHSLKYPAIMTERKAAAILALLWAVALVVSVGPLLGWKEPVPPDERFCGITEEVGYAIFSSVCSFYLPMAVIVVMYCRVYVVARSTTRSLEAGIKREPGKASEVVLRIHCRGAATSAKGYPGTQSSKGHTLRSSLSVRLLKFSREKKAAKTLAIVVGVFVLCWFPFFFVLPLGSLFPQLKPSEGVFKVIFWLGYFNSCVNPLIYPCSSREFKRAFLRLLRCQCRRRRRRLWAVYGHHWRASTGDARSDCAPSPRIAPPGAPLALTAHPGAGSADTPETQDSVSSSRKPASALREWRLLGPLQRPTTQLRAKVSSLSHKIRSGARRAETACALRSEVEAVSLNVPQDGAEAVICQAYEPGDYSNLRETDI
Briefly: Antagonist activity at alpha-1D adrenergic receptor in SPF rat vas thoracic aorta assessed as inhibition of noradrenaline-induced contractions. Conditions: read-out: pA2 (converted).

The target of series [6] is T2, Alpha-1A adrenergic receptor (Rattus norvegicus, UniProt P43140).
T2 sequence (P43140 whole entry): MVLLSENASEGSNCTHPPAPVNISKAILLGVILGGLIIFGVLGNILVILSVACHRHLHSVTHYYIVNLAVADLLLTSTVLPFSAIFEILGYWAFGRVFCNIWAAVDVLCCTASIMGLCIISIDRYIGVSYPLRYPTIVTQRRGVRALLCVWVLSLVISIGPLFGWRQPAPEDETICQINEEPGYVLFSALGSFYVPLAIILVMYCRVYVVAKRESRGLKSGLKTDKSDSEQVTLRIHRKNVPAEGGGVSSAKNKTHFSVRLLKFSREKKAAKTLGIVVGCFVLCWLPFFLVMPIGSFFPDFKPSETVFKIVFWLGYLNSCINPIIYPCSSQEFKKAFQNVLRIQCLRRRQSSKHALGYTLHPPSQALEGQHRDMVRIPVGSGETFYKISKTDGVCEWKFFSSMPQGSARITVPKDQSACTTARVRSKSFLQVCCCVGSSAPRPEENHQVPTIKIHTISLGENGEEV
The series can be described thus: Antagonist activity at alpha-1a adrenergic receptor in SPF rat prostatic vas deferens assessed as inhibition of noradrenaline-induced contractions. The settings on record: read-out: pA2 (converted).

The species entered for series [7] is Rattus norvegicus. The series can be described thus: Ratio of pA2 for alpha-1b adrenergic receptor in SPF rat spleen to pA2 for alpha-1a adrenergic receptor in SPF rat prostatic vas deferens. It counts as tissue-based.
Series [8] is filed under the species Rattus norvegicus. Briefly: Ratio of pA2 for alpha-1b adrenergic receptor in SPF rat spleen to pA2 for alpha-1D adrenergic receptor in SPF rat vas thoracic aorta.
The test system of series [9] is Rattus norvegicus. Briefly: Antihypertensive activity in spontaneously hypertensive rat assessed as mean arterial pressure at 80 mg/kg, po measured after 0 hrs by tail-cuff method (reference value: 161.70 +/- 5.12 mmHg). It is filed as functional.
Series [10] has as its system Rattus norvegicus. Briefly: Effect on heart rate in spontaneously hypertensive rat assessed as heart rate level at 80 mg/kg, po measured after 0 hrs by tail-cuff method (reference value: 413.17 +/- 10.5 bpm). It is filed as ADME, organism-based. Conditions: in vivo.
In series [11] the test system is Rattus norvegicus. The series can be described thus: Antihypertensive activity in spontaneously hypertensive rat assessed as systolic arterial pressure at 80 mg/kg, po measured after 1 hr by tail-cuff method (reference value: 185.35 +/- 10.30 mmHg). It is filed as functional.
In series [12] the test system is Rattus norvegicus. Briefly: Antihypertensive activity in spontaneously hypertensive rat assessed as mean arterial pressure at 80 mg/kg, po measured after 1 hr by tail-cuff method (reference value: 160 +/- 9.97 mmHg). It is filed as functional.
Series [13] has as its system Rattus norvegicus. The series can be described thus: Antihypertensive activity in spontaneously hypertensive rat assessed as systolic arterial pressure at 80 mg/kg, po measured after 2 hrs by tail-cuff method (reference value: 189.20 +/- 12.31 mmHg). It is filed as functional.
Series [14] deals with Rattus norvegicus. Briefly: Antihypertensive activity in spontaneously hypertensive rat assessed as mean arterial pressure at 80 mg/kg, po measured after 2 hrs by tail-cuff method (reference value: 163 +/- 8.1 mmHg). It counts as functional.
The test system of series [15] is Rattus norvegicus. Briefly: Antihypertensive activity in spontaneously hypertensive rat assessed as systolic arterial pressure at 80 mg/kg, po measured after 4 hrs by tail-cuff method (reference value: 178.66 +/- 17.18 mmHg). It is filed as functional.
Series [16] concerns Rattus norvegicus. The series can be described thus: Antihypertensive activity in spontaneously hypertensive rat assessed as diastolic arterial pressure at 80 mg/kg, po measured after 4 hrs by tail-cuff method (reference value: 136.12 +/- 5.3 mmHg). It is filed as functional.
In series [17] the test system is Rattus norvegicus. Briefly: Antihypertensive activity in spontaneously hypertensive rat assessed as mean arterial pressure at 80 mg/kg, po measured after 4 hrs by tail-cuff method (reference value: 150.30 +/- 9.26 mmHg). It is filed as functional.
The subject of series [18] is Rattus norvegicus. The series can be described thus: Effect on heart rate in spontaneously hypertensive rat assessed as heart rate level at 80 mg/kg, po measured after 4 hrs by tail-cuff method (reference value: 410.80 +/- 17.4 bpm). It is filed as ADME, organism-based. The settings on record: in vivo.
In series [19] the test system is Rattus norvegicus. Briefly: Antihypertensive activity in spontaneously hypertensive rat assessed as systolic arterial pressure at 80 mg/kg, po measured after 8 hrs by tail-cuff method (reference value: 179.42 +/- 13.70 mmHg). It is filed as functional.
In series [20] the test system is Rattus norvegicus. Briefly: Antihypertensive activity in spontaneously hypertensive rat assessed as diastolic arterial pressure at 80 mg/kg, po measured after 8 hrs by tail-cuff method (reference value: 140.61 +/- 10.3 mmHg). It counts as functional.
Series [21] deals with Rattus norvegicus. Briefly: Antihypertensive activity in spontaneously hypertensive rat assessed as mean arterial pressure at 80 mg/kg, po measured after 8 hrs by tail-cuff method (reference value: 153.55 +/- 11.43 mmHg). It counts as functional.
Series [22] deals with Rattus norvegicus. Briefly: Effect on heart rate in spontaneously hypertensive rat assessed as heart rate level at 80 mg/kg, po measured after 8 hrs by tail-cuff method (reference value: 412.77 +/- 11.3 bpm). Conditions: in vivo. It is filed as ADME, organism-based.
Series [23] deals with Rattus norvegicus. Briefly: Antihypertensive activity in spontaneously hypertensive rat assessed as reduction in mean arterial pressure at 80 mg/kg, po measured after 4 hrs by tail-cuff method. It counts as functional. Details: scale not given: the % may be the effect or the level left.

The inhibition is the change of the read-out against control, counted positive when it falls. With `COc1cc2c(cc1OCC(O)CN1CCN(C(=O)C3CCCO3)CC1)C(=O)C(C)OC2` (stereo not drawn), the Activity in the series on Rattus norvegicus [1] was determined as 411.01 bpm; in the series with Rattus norvegicus [2] it was 140.83 mmHg; in the series with Rattus norvegicus [9], 166.7 mmHg; in the series on Rattus norvegicus [10], 415.33 bpm; with Rattus norvegicus [11], 169.21 mmHg; in the series with Rattus norvegicus [12] it was 152.5 mmHg. The Activity with Rattus norvegicus [13] is 150.8 mmHg; in the series with Rattus norvegicus [14], 138.17 mmHg; in the series on Rattus norvegicus [15] it was 140.29 mmHg; in the series with Rattus norvegicus [16], 120.54 mmHg; in the series on Rattus norvegicus [17], 127.12 mmHg; with Rattus norvegicus [18] it was 405.15 bpm. Moreover, the Activity came to 170.38 mmHg in the series on Rattus norvegicus [19]; 141.89 mmHg in the series on Rattus norvegicus [20]; 151.39 mmHg in the series on Rattus norvegicus [21]; 413.16 bpm with Rattus norvegicus [22]; 23.7% in the series with Rattus norvegicus [23]. Further, in the series with Thoracic aorta [3], the inhibition at 10 µM turned out to be 41.6%. Also, the inhibition at 100 µM in the series with Thoracic aorta [4] is 64%. Further, the results for the Kb in series [5] and in series [6] were 189 to 195 nM and 224 nM, respectively. Also, the Ratio was 6.3 in the series listed under Rattus norvegicus [7] and 5.6 in the series filed under Rattus norvegicus [8].
